≈ marks a conversion by molar mass, not a printed value. Like-named read-outs stand apart in the source and are kept apart here.
Legend:
[1] = test system: S. aureus strain 29213; experiment: Time-kill experiments; format: cell-based; conditions: by 8 hours
Procedure: (§1) Two compounds (#880 and #169) were tested in time-kill assays against S. aureus strain 29213. These compounds were then used to attempt to select for resistant variants by passaging at sub-MIC concentrations for 20 passages.
Twenty mL of MH-II media warmed to 37° C. was seeded with log-phase growth S. aureus strain 29213 at 1×10^6 cfu/mL in 50 mL erlenmeyer shake-flasks. Compound was added at 2× and 4× the MIC value. Negative controls (no drug) and positive drug controls (vancomycin at 2× and 4× the MIC) were included in the experiment. Flasks were shaken at 200 rpm and 37° C. Samples were taken at the times indicated (0, 2, 4, 6, 8 and 24 hrs post inoculation) and bacterial loads were quantified by limiting dilution assay.

[2] = test system: S. aureus ATCC 29213; experiment: Resistance passaging experiment; format: cell-based; conditions: for MIC: Staphylococcus aureus
Procedure: as §1
The selected strain for this experiment was S. aureus ATCC 29213. A frozen glycerol stock was streaked onto MH-II agar and grown overnight at 37° C. The next day, 3-5 colonies were picked and grown in 3 mL of MH-II broth at 37° C. with 200 rpm shaking for approximately 4 hours. A 2-fold microdilution (in round-bottom, 96-well plates) was made for each compound being tested. CLSI guidelines for broth microdilution were followed. Using the bacteria grown from the overnight colonies, each microdilution was inoculated at a final concentration of 5×10^5 colony forming units (CFU)/mL. The microdilutions were incubated at 37° C. for 16 to 20 hours, after which the minimal inhibitory concentration (MIC) of each was read visually. The MIC is defined as the lowest concentration of compound resulting in no visible bacterial growth. This activity is recorded as the MIC at Passage 0. The contents of the well in the next dilution lower in concentration than the MIC (i.e., ½ the MIC) was mixed with a micropipette and 50 μL was transferred to 3 mL of fresh MH-II broth. This was grown at 37° C. with 200 rpm shaking for approximately 4 hours, at which time the sample was turbid. A 1 mL aliquot of this sample was added to a cryovial containing 300 μL of glycerol. This was marked as passage 1, vortexed, than placed in a −80° C. freezer for storage. The rest of the culture was adjusted to a bacterial concentration of 1×10^6cfu/mL (OD600 of 0.004), which was then used to inoculate a microdilution of the same compound (final bacterial concentration of 5×10^5 cfu/mL). This was incubated at 37° C. for 16 to 20 hours. After that time the MIC was once again read and recorded as the MIC at Passage 1. This process was repeated through 20 passages. Ciprofloxacin was included as a control and an untreated sample was also passaged 20 times as a negative control.

[3] = test system: S. aureus specific Arg ASL (anticodon stem loop) RNA oligomer interaction with programmed ribosomes; experiment: Fluorescence polarization assay of Arg ASL / programmed ribosome complex (HTS and dose response); format: binding, S. aureus Arg ASL; E. coli 70S ribosomes; conditions: control compounds
Excerpt: The assay requires the following materials: • Ribosomes—isolated from E. coli or S. aureus • fMet tRNA (Sigma or Chemical Block, Moscow) • mRNA (including the S-D sequence, the “box” sequence, the codon for methionine, and the codon for arginine that is specific for S. aureus, AGA, optionally with additional base pairs to the left of the S-D sequence and/or to the right of the codon for arginine) • Fluorescently labeled Arg ASL oliogomer • Buffer—HAM20,β • 384 well high binding micro titer plates (Matrix Technologies #4319, sold by Fischer Scientific as cat #50823855), or other appropriate plates for use in high throughput screening • Filtration (Sartorius Stedium 100 Kdalton VC 1042) or centrifugation for complex purification • EDTA—negative control (binding antagonist) • Neomycin—A-site binding enhancer (binding agonist)
A ribosome complex was prepared using the above materials and then purified prior to use in the assay. The prepared complex can be stored in concentrated form at −80° C. The complexes were diluted in buffer and dispensed onto plates. […] Fluorescence polarization was measured at approximately 4 hours after dispensing onto the micro-titer plates.
ASL^Arg was first heated for 2 min at 90° C. in water, after addition of 1/10 V of 10× buffer incubation continued on ice for at least 10 min. Prior to complex formation 70S ribosomes and tRNA were reactivated in buffer for 5 min at 45° C. followed by 10 min at 37° C.; mRNA was heated in buffer at 37° C. for 5 min. • (1000 μl×(2 μM E. coli 70S ribosomes+10 μM mRNA-Arg+4 μM tRNA^fmet)/HAM20,β→30 min @ 37° C.,+1000 μl×(0.2 μM neomycin+[…]))→20 min @ 37° C., overnight on ice • Final complex: (2000 pm P+2000 pm ASL)/2 ml=1 μM P+1 μM ASL HAM20,β:
Preparation of Complexes: The purified complex was diluted in ice cold HAM20,β such that the total fluorescence was approximately 2,000,000 units per 5 μL.
20 μl of the diluted complex was added to all 384 well plates (except for blank wells, which received 20 μL of HAM20 only, without complex) using Multidrop dispenser after which the plates were incubated at 25° C. for 4 hours (target 4.5 hours for middle of batch). Plates were then analyzed for fluorescence polarization in Analyst HT fluorescence plate reader and the following instrument settings:
The parallel and perpendicular fluorescence values of experimental wells were automatically corrected for the corresponding values obtained from the blank wells. The fluorescence polarization was calculated as following: P=(I−Ip)/(I+Ip), wherein Ip—is perpendicular fluorescence and I—is parallel fluorescence.
The percent of effect of experimental compounds was calculated as following: %-Inh=(P0−Pc)/(P0−P100)*100, wherein P0—is average polarization in 0%—inhibition control wells, P100—is average polarization in 100%—inhibition control wells, and Pc—is polarization in compound well.
The 3 sigma HTS hits were cherry picked and retested in 6 pt dose response format, using 3× serial dilution and the top nominal concentration of 100 uM.
The compounds were serially diluted in 10% DMSO and plated into 384 well plates (in a volume of 5 μL) to achieve the nominal final concentration raging from 100 μM to 0.4 μM. The plates received 20 μl of the diluted complex following incubation at 25° C. for 4 hours. Plates were then analyzed for fluorescence polarization as described above (see HTS section).
In parallel, the compounds were tested for auto-fluorescence. To this end, the compounds were plated (using the same dilution protocol) into 384 well plates. The plates received 20 μL of the HAM20 assay buffer only (without complex). The plates were incubated for 4 hrs and then were analyzed for fluorescence polarization as described above.

Compound: CN[C@H](CC(C)C)C(=O)N[C@H]1C(=O)N[C@@H](CC(N)=O)C(=O)N[C@H]2C(=O)N[C@H]3C(=O)N[C@H](C(=O)N[C@H](C(=O)O)c4cc(O)cc(O)c4-c4cc3ccc4O)[C@H](O)c3ccc(c(Cl)c3)Oc3cc2cc(c3O[C@@H]2O[C@H](CO)[C@@H](O)[C@H](O)[C@H]2O[C@H]2C[C@](C)(N)[C@H](O)[C@H](C)O2)Oc2ccc(cc2Cl)[C@H]1O [Vancomycin, reference compound]
- reduction of bacterial counts ([1]; 2× the MIC): 2.5 log10
- reduction of bacterial counts (killing) ([1]; 4× the MIC): 2.5 log10

Compound: O=C(O)c1cn(C2CC2)c2cc(N3CCNCC3)c(F)cc2c1=O [Ciprofloxacin]
- MIC in S. aureus 29213 ([2]; Passage 0): 0.5 µg/mL (≈ 1.51 µM)
- MIC in S. aureus 29213 ([2]; Passage 20, passaged at sub-MIC): > 256 µg/mL
- MIC ([2]; ATCC29213, read-out: MIC in S. aureus 29213, Passage 0): 0.5 µg/mL (≈ 1.51 µM)
- MIC ([2]; ATCC29213, read-out: MIC in S. aureus 29213, Passage 1, passaged at sub-MIC): 1 µg/mL (≈ 3.02 µM)
- MIC ([2]; ATCC29213, read-out: MIC in S. aureus 29213, Passage 2, passaged at sub-MIC): 2 µg/mL (≈ 6.04 µM)
- MIC ([2]; ATCC29213, read-out: MIC in S. aureus 29213, Passage 3, passaged at sub-MIC): 2 µg/mL (≈ 6.04 µM)
- MIC ([2]; ATCC29213, read-out: MIC in S. aureus 29213, Passage 4, passaged at sub-MIC): 2 µg/mL (≈ 6.04 µM)
- MIC ([2]; ATCC29213, read-out: MIC in S. aureus 29213, Passage 5, passaged at sub-MIC): 2 µg/mL (≈ 6.04 µM)
- MIC ([2]; ATCC29213, read-out: MIC in S. aureus 29213, Passage 6, passaged at sub-MIC): 2 µg/mL (≈ 6.04 µM)
- MIC ([2]; ATCC29213, read-out: MIC in S. aureus 29213, Passage 7, passaged at sub-MIC): 2 µg/mL (≈ 6.04 µM)
- MIC ([2]; ATCC29213, read-out: MIC in S. aureus 29213, Passage 8, passaged at sub-MIC): 4 µg/mL (≈ 12.1 µM)
- MIC ([2]; ATCC29213, read-out: MIC in S. aureus 29213, Passage 9, passaged at sub-MIC): 8 µg/mL (≈ 24.1 µM)
- MIC ([2]; ATCC29213, read-out: MIC in S. aureus 29213, Passage 10, passaged at sub-MIC): 8 µg/mL (≈ 24.1 µM)
- MIC ([2]; ATCC29213, read-out: MIC in S. aureus 29213, Passage 11, passaged at sub-MIC): 16 µg/mL (≈ 48.3 µM)
- MIC ([2]; ATCC29213, read-out: MIC in S. aureus 29213, Passage 12, passaged at sub-MIC): 16 µg/mL (≈ 48.3 µM)
- MIC ([2]; ATCC29213, read-out: MIC in S. aureus 29213, Passage 13, passaged at sub-MIC): 32 µg/mL (≈ 96.6 µM)
- MIC ([2]; ATCC29213, read-out: MIC in S. aureus 29213, Passage 14, passaged at sub-MIC): 32 µg/mL (≈ 96.6 µM)
- MIC ([2]; ATCC29213, read-out: MIC in S. aureus 29213, Passage 15, passaged at sub-MIC): 32 µg/mL (≈ 96.6 µM)
- MIC ([2]; ATCC29213, read-out: MIC in S. aureus 29213, Passage 16, passaged at sub-MIC): 64 µg/mL (≈ 193 µM)
- MIC ([2]; ATCC29213, read-out: MIC in S. aureus 29213, Passage 17, passaged at sub-MIC): 128 µg/mL (≈ 386 µM)
- MIC ([2]; ATCC29213, read-out: MIC in S. aureus 29213, Passage 18, passaged at sub-MIC): 128 µg/mL (≈ 386 µM)
- MIC ([2]; ATCC29213, read-out: MIC in S. aureus 29213, Passage 19, passaged at sub-MIC): 256 µg/mL (≈ 773 µM)
- MIC ([2]; ATCC29213, read-out: MIC in S. aureus 29213, Passage 20, passaged at sub-MIC): > 256 µg/mL
- MIC ([2]; ATCC29213, read-out: MIC in S. aureus 29213, second Passage 10 line of Table 4 (untreated culture passaged 10 times)): 0.5 µg/mL (≈ 1.51 µM)
- MIC ([2]; ATCC29213, read-out: MIC in S. aureus 29213, second Passage 20 line of Table 4 (untreated culture passaged 20 times)): 0.5 µg/mL (≈ 1.51 µM)
- increase of MIC over 20 passages ([2]; passaging at sub-MIC concentration, 20 passages): > 512 fold

Compound: O=C(O)CN(CCN(CC(=O)O)CC(=O)O)CC(=O)O [EDTA, reference compound]
- effect on complex formation (fluorescence polarization versus time, FIG. 11) [3]: inhibitor of complex formation

Compound: Neomycin [reference compound]
- effect on complex formation (fluorescence polarization versus time, FIG. 11) [3]: stabilizer of complex formation

From US10316371B2, “Screening methods for identifying specific Staphylococcus aureus inhibitors” (TRANA DISCOVERY, INC., priority 2011, dated 2019)
